What was measured:
[1] = system: sleep deprived non-human primates; experiment: Delayed Match To Sample (DMTS) task after sleep deprivation; type: in vivo; details: for Performance on DMTS Task (% Correct ± sem): Sleep Deprivation + BCM
From the text: This task consists of a kind of “heads-up” display wherein the monkey interacts with a computer video display through motions of its hand. […] A fluorescent spot on the back of the monkey's hand is tracked by an overhead camera, and the coordinates of the hand position are proportionally translated into movement of a cursor on the video display. The animal responds to single Sample phase images by placing the cursor inside the image, then after a delay (during which the display is blanked) the animal must select the appropriate Match image (out of 2-6 different images) by placing the cursor inside the image identical to the Sample. Animal performance is scored as correct responses according to length of delay, and complexity of the trial (number of match images). Recent findings have shown that primate hippocampal neurons encode specific features of the task and stimulus, and that strength of the encoding correlates to behavioral success. Recording and on-line analysis of hippocampal neural activity allows tracking of the animal's cognitive performance under various experimental conditions. Two additional measures (eye and limb movement tracking) along with recording of movement sensitive neurons in hippocampus, putamen and motor cortex provide assessment of attention and ability to perform directed motor movements. Thus, it is possible to distinguish behavioral errors due to inattention or slow movements from those caused by inappropriate cognitive processing of the task information.
(§1) In practice, an animal is trained in the DMTS task such that his daily performance variable is relatively constant. This is judged as baseline performance. Once a stable baseline is established, the subject is deprived of sleep for variable periods in order to establish the effect of sleep deprivation on performance. The ability of an AMPA receptor modulator to ameliorate the decline in performance in the DMTS task is assessed by administered of the test compound prior to or during testing after sleep deprivation. If the test compound is administer prior to the beginning of the test session, then the effect of the drug is compared to performance following sleep deprivation on prior or subsequent days of testing. This protocol allows for the co-administration of a metabolic tracer (such as fluorodeoxyglucose labeled with fluorine-18; FDG) so that regional brain activity can be evaluated using Positron Emission Tomography (PET). Alternatively, an intravenous administration of the test compound midway into the DMTS session allows for a within-session evaluation of drug effect.

[2] = system: sleep deprived non-human primates; experiment: Regional glucose utilization (FDG PET) in brain during DMTS task; type: in vivo
Method: as §1
Positron Emission Tomography (PET) was used in order to examine the extent to which different brain regions were effected by sleep deprivation by measuring the uptake of ^18F-labeled fluorodeoxyglucose (FDG) into cells as a measure of metabolic activity. By this method it was observed that there was a general increase in metabolism across all brain regions on test days that followed sleep deprivation compared to normal baseline test days (FIG. 2).
The absolute values shown in FIG. 2 can be normalized to global brain metabolism (FIG. 3) by the following equation: (ROISD/GSD−ROIBL/GBL)/GBL where ROI mean region of interest, SD means under the condition of sleep deprivation, G means global and BL means under the condition of baseline performance.

AMPA receptor = details: cited from earlier work

## O=C(c1ccc2nonc2c1)N1CCOCC1 [BCM, 1-(Benzofurazan-5-ylcarbonyl)morpholine]
[1]; 0.8 mg/kg (iv), single night of sleep deprivation
  Effect on the performance deficit in DMTS task caused by sleep deprivation: completely reversed the performance deficit
[1]; Subject 1, 0.8 mg/kg (iv) after sleep deprivation
  Performance compared to baseline: enhanced performance compared to baseline
[1]; Subject No. 1, 0.8 mg/kg (iv), baseline 81 ± 2, sleep deprivation 65 ± 1
  Performance on DMTS Task (% Correct ± sem): 87 ± 2 % Correct
[1]; Subject No. 2, 0.8 mg/kg (iv), baseline 81 ± 2, sleep deprivation 67 ± 4
  Performance on DMTS Task (% Correct ± sem): 83 ± 3 % Correct
[1]; drug administration after sleep deprivation, FIG. 1
  Latencies to respond in the Match phase: not effected
[2]; BCM following sleep deprivation, compared to vehicle administration, FIG. 2
  Metabolism (absolute uptake of FDG) in all brain regions: reduced compared to vehicle administration
[2]; BCM following sleep deprivation, FIG. 2
  Metabolism (uptake of FDG) in several brain regions relative to normal: near normal levels
[2]; FIG. 3, normalized data
  Energy demand of the brain to perform the DMTS task (FDG uptake normalized to global brain metabolism): reduction in energy demand

## O=C(c1ccc2nccnc2c1)N1CCCCC1 [CX516, 1-(Quinoxaline-6-ylcarbonyl)piperidine]
[1]; in vivo
  Improving performance in DMTS task: effective at improving performance

## COc1ccc(C(=O)N2CCCC2=O)cc1 [Aniracetam]
AMPA receptor
  Mean open time of the AMPA receptor channel: increase the mean open time
AMPA receptor; mirrored in the field EPSP
  Amplitude of the synaptic current: increases the amplitude
  Duration of the synaptic current: prolongs its duration
